From ChEMBL document CHEMBL1201862, “PubChem BioAssay data set” (2004)
“And” between values parts separate entries of the source, which are not always exact repeats. Equal entries are not always repeated. Values belong to the compound of their own block, whether it stands above or below them. The source made the active and inactive calls.

What was measured:
[1] = NIH-3T3 fibroblast cytotoxicity, dose response, cytotoxicity control, cell-based, fluorescence, Alamar Blue, secondary assay (AID 2327); type: functional;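 also: NIH-3T3 mouse fibroblasts cultured with fluconazole at 8 µg/mL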
Bcl-2-related protein A1 [2] = molecular target: T1, Bcl-2-related protein A1 (Mus musculus, UniProt Q07440); experiment: displacement of Bid BH3 peptide from Bfl-1 – biochemical, fluorescence polarization, FITC-Bid, mouse, primary screen (AID 432)
T1 sequence (Q07440 whole entry): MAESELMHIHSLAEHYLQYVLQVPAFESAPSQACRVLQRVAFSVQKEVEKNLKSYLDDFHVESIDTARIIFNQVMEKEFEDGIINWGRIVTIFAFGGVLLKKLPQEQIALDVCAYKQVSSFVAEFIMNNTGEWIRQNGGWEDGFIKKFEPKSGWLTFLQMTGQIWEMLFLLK

[3] = molecular target: Glyceraldehyde-3-phosphate dehydrogenase (Homo sapiens, UniProt P04406)
[4] = fluconazole-exposed Candida albicans growth modulators – fluorescence, retest, confirmation (AID 2467); type: functional, cell-based
[5] = molecular target: G-protein coupled receptor 55 (Homo sapiens, UniProt Q9Y2T6); experiment: inhibition of LPI-stimulated GPR55 beta-arrestin translocation – imaging, U2OS, beta-arrestin-GFP, LPI agonist, primary screen (AID 2013); type: functional;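 also: antagonist potency measured as reduced agonist-driven arrestin aggregation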
[6] = HPDE-C7 pancreatic duct cell viability loss – fluorescence, HTS (AID 430); type: functional, cell-based; conditions: Homo sapiens
Bcl-2-related protein A1 [7] = molecular target: T1, Bcl-2-related protein A1; experiment: small-molecule antagonists of Bfl-1/BH3 interaction – biochemical, TR-FRET, mouse Bfl-1, confirmation (AID 621);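 also: TR-FRET binding of GST-Bfl-1 to FITC-labelled Bid peptide via terbium antibody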
[8] = viability loss of HPDE-C7K cells – cell-based, fluorescence, HTS, primary screen (AID 431); type: functional; conditions: Homo sapiens
Bcl-2-related protein A1 [9] = molecular target: T1, Bcl-2-related protein A1; experiment: Bfl-1 binding inhibitors, SAR follow-up, biochemical, fluorescence polarization (AID 1070)
[10] = molecular target: T2, Nucleotide-binding oligomerization domain-containing protein 1 (Homo sapiens, UniProt Q9Y239); experiment: SAR analysis of compounds that inhibit NOD1 - Set 3. [Related pubchem assays (depositor defined):AID1566, AID1575, AID1578, AID1849, AID1852, AID2333, AID2335, AID2466]; type: functional
T2 sequence (Q9Y239 whole entry): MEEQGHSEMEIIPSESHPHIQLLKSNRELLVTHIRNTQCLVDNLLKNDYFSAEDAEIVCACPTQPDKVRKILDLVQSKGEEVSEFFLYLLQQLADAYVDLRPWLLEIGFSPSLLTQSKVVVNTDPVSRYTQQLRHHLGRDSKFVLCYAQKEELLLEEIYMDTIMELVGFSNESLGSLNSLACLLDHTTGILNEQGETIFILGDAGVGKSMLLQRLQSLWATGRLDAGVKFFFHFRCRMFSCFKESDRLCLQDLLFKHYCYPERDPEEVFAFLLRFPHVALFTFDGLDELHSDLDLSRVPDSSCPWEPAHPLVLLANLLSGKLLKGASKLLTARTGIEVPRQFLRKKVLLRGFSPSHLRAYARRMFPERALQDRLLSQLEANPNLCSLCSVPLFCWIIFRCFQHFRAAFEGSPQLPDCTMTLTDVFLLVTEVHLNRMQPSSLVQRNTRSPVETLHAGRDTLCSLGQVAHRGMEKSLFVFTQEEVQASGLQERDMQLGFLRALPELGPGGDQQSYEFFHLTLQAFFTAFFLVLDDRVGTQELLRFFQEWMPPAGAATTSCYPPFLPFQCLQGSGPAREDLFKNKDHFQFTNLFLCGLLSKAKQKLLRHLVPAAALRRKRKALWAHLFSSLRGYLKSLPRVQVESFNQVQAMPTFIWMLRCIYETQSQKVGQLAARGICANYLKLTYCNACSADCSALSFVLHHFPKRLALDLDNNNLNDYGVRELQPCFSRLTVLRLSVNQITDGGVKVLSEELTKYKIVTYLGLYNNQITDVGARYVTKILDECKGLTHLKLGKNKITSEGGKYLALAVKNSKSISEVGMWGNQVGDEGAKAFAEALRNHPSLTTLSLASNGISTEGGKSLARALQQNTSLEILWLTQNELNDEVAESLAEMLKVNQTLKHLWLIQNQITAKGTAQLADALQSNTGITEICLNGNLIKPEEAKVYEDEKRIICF

Beta-galactosidase = Beta-galactosidase (Escherichia coli, UniProt Q8VNN2); experiment: detection-enzyme interference by beta-gal modulators – biochemical, E. coli enzyme, set 3, artefact control for CCR6 antagonist project, dose response (AID 504712); type: functional
Sequence of Beta-galactosidase (Q8VNN2 whole entry): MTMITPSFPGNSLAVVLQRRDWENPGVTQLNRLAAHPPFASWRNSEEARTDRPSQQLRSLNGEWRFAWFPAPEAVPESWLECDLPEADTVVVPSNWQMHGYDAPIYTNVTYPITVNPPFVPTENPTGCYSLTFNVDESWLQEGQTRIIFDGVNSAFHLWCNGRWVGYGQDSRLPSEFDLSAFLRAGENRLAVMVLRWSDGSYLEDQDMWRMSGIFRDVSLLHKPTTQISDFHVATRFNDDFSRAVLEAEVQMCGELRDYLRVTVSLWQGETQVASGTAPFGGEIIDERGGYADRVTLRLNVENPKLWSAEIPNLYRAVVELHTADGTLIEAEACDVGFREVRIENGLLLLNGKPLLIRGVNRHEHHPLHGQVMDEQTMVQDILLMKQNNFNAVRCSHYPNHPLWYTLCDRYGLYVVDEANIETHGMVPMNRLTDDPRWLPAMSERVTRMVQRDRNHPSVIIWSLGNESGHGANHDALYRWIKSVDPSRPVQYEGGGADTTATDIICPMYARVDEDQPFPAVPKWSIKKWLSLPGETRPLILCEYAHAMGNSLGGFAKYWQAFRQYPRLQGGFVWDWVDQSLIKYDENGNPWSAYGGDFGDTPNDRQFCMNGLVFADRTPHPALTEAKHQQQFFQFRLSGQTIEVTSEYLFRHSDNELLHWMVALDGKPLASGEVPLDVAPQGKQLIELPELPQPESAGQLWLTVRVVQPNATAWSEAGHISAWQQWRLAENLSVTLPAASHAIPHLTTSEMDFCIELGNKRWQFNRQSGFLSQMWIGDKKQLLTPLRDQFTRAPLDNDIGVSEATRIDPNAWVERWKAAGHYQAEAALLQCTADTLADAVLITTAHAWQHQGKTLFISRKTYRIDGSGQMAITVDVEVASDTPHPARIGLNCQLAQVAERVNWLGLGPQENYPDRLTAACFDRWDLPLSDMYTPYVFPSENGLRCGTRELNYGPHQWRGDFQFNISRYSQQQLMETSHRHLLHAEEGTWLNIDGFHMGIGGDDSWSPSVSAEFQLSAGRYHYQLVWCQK

Tumor necrosis factor = Tumor necrosis factor (Homo sapiens, UniProt P01375); experiment: analog potency on TNFa NF-kB signaling – cell-based, set 3, SAR follow-up (AID 2801); type: functional
Sequence of Tumor necrosis factor (P01375 whole entry): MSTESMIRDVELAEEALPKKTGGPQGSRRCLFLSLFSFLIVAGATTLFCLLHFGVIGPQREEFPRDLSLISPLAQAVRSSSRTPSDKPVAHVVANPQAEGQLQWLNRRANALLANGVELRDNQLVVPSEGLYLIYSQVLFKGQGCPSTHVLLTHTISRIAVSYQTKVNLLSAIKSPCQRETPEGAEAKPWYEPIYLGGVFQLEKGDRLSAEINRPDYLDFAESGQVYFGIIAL

HEK293 = experiment: SAR analysis of compounds that are cytotoxic to HEK293 - Set 3. [Related pubchem assays (depositor defined):AID1575, AID1578, AID1848, AID1849, AID2001, AID2333, AID2334, AID2335, AID2337, AID2469]; type: functional, cell-based; conditions: Homo sapiens
[11] = molecular target: Nucleotide-binding oligomerization domain-containing protein 2 (Homo sapiens, UniProt Q9HC29); experiment: inhibition of MDP-driven NOD2 NF-kB reporter – cell-based, set 3, SAR follow-up (AID 2799); type: functional
Sequence of Nucleotide-binding oligomerization domain-containing protein 2 (Q9HC29 whole entry, the tested form may be a part): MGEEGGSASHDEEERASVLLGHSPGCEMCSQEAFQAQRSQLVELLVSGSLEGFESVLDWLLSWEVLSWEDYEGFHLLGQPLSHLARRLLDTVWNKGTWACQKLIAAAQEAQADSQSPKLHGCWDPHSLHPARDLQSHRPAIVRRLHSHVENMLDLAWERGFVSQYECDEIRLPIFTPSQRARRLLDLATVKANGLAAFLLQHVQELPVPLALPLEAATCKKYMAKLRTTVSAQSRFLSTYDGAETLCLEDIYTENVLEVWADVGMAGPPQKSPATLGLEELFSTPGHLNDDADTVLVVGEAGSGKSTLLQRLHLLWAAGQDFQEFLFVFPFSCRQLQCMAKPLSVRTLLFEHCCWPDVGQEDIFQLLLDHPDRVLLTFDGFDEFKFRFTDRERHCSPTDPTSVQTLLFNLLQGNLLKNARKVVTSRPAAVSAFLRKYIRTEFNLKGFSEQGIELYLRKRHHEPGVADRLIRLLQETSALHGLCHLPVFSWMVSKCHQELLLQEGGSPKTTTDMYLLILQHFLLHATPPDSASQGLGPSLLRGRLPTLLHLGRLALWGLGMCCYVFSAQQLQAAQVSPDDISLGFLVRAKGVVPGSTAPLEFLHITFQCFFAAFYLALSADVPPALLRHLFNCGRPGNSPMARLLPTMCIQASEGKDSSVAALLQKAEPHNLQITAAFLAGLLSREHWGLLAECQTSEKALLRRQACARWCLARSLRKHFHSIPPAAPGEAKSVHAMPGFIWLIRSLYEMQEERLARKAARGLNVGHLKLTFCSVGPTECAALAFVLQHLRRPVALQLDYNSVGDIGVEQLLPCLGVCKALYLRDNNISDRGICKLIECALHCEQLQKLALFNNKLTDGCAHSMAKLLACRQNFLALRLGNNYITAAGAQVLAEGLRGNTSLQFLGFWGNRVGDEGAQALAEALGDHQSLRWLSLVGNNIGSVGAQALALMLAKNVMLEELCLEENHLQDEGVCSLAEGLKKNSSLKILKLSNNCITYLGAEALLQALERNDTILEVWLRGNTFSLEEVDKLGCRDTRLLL

[12] = reduction of Shn3 3'UTR-driven luciferase in osteoblasts – cell-based, Clone20 osteoblasts, firefly luciferase, cherry-picked, dose response (AID 624132); type: functional;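 also: firefly luciferase luminescence from reporter carrying the Shn3 3'UTR in osteoblasts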
[13] = loss of viability in HepG2 cells – cell-based, CellTiter-Glo, cherry-picked, cytotoxicity control for Shn3 inhibitor project, dose response (AID 624134); type: functional
[14] = non-specific 3'UTR reporter inhibition in Clone20-Shn3RL – cell-based, Renilla luciferase, cherry-picked, counter-screen for Shn3 inhibitor project, dose response (AID 624133); type: functional
[15] = Fluorescence-based cell-based high throughput dose response assay for inhibitors of the interaction of nucleotide-binding oligomerization domain containing 2 (NOD2) and the receptor-interacting serine-threonine kinase 2 (RIPK2).; type: functional, Homo sapiens; conditions: Homo sapiens
[16] = molecular target: T3, Hepatocyte nuclear factor 4-alpha (Homo sapiens, UniProt P41235); type: functional, cell-based;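 also: biochemical luminescence-based dose-response counterscreen measuring inhibition of HNF4 dimerization, run alongside a screen for blockers of ABHD5–perilipin-5 interaction; split luciferase complementation of HNF4 fusion proteins in cell lysate measuring dimerization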
T3 sequence (P41235 whole entry): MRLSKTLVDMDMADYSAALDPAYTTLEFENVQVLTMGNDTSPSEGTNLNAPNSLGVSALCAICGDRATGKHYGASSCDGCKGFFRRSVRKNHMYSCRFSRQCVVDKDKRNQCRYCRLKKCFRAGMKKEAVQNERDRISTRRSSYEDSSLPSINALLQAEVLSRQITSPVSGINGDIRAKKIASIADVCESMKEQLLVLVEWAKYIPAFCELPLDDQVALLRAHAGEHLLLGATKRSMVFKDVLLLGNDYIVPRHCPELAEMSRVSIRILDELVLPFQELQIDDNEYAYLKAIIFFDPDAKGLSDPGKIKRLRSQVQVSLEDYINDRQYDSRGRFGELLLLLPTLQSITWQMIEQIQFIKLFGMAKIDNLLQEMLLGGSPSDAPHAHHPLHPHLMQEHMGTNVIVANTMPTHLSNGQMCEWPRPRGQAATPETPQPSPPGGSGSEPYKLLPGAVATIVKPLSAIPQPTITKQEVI

Beta Lactamase = Beta Lactamase (Pseudomonas aeruginosa, UniProt Q932Y6); experiment: BLA reporter interference, concentration series – BLA reporter cells, FRET fluorescence, artefact control for NOD2-RIPK2 interaction inhibitor project, dose response (AID 651552); type: functional, cell-based
Sequence of Beta Lactamase (Q932Y6 whole entry): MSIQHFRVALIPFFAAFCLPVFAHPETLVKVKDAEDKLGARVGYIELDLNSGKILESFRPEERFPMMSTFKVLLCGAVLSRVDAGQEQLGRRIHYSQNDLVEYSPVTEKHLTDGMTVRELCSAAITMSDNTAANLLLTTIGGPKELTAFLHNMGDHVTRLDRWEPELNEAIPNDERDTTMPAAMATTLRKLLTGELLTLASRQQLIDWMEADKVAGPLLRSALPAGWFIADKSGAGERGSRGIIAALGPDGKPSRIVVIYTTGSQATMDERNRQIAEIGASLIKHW

[17] = viability loss in HEK293T cells – cell-based, cherry-picks, cytotoxicity control for HIV Vif inhibitor project, dose response (AID 652208); type: functional
[18] = reduced cellular PGC1a acetyl-lysine signal – cell-based, cherry-picked samples, dose response (AID 720514); type: functional;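 also: potency may reflect raised or lowered acetylation signal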
Estrogen receptor = molecular target: T4, Estrogen receptor (Homo sapiens, UniProt P03372); experiment: ERα coactivator recruitment enhancers – biochemical, TR-FRET, ERα LBD, dose response (AID 737)
T4 sequence (P03372 whole entry): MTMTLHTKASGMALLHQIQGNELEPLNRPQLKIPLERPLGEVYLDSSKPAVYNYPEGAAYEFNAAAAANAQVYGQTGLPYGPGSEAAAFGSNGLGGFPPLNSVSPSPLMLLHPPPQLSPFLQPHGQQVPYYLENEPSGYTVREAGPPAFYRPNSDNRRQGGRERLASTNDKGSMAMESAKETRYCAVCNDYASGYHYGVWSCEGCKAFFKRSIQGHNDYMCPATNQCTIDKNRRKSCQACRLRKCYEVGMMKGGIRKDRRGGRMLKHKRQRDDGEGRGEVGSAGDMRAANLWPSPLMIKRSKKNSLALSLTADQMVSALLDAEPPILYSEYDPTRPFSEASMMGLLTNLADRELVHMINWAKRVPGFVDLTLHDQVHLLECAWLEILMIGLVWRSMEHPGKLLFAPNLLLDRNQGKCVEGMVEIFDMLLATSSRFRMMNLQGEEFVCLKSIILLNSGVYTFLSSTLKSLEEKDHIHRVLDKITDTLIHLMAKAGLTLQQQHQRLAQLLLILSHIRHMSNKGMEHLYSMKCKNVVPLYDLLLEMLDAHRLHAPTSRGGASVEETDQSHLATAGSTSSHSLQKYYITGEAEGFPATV

Leucine aminopeptidase = molecular target: T5, Leucine aminopeptidase (Plasmodium falciparum 3D7, UniProt Q8IL11); experiment: P. falciparum M17LAP inhibitors, primary screen, biochemical, fluorogenic H-Leu-NHMec substrate, 1536-well (AID 1619); type: functional
T5 sequence (Q8IL11 whole entry): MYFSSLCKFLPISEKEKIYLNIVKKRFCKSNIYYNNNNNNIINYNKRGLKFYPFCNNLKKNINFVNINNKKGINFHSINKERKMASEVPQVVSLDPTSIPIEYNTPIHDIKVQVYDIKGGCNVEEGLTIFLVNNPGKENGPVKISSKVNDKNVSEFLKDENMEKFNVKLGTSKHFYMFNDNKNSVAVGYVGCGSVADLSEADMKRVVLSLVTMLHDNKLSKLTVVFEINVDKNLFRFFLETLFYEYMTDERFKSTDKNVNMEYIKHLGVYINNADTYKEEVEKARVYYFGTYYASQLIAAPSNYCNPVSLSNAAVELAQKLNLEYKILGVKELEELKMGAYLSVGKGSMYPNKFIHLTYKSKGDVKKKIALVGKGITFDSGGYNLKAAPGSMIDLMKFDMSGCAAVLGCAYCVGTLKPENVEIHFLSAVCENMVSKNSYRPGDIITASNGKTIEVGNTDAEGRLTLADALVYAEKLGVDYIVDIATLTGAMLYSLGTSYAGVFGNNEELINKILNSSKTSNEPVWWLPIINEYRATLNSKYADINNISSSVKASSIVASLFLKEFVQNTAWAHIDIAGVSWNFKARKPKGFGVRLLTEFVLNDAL

Aspartyl aminopeptidase = Aspartyl aminopeptidase (Plasmodium falciparum 3D7, UniProt Q8I2J3); experiment: Counterscreen for inhibitors of M1 and M17 aminopeptidases: QFRET-based biochemical high throughput dose response assay for inhibitors of the Plasmodium falciparum M18 Aspartyl Aminopeptidase (PFM18AAP). [Related PubChem assays: 1619 (Screening assay (M17LAP inhibitors).), 1445 (Screening assay (M1AAP inhibitors).)]
Procathepsin L = Procathepsin L (Homo sapiens, UniProt P07711); experiment: CTSL1 protease inhibition – biochemical, QFRET, 1536-well, counter-screen for M1/M17 aminopeptidase inhibitor project, dose response (AID 2214)
Sequence of Procathepsin L (P07711 whole entry): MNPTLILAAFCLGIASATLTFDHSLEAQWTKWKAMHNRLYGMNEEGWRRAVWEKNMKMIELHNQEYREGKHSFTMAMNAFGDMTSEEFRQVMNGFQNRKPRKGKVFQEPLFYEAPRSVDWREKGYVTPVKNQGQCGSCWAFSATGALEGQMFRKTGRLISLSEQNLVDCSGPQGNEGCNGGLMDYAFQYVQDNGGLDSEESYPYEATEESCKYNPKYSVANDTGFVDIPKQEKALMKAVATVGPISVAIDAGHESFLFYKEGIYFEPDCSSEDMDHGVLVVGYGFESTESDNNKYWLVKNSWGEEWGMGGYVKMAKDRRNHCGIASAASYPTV

[19] = molecular target: Epstein-Barr nuclear antigen 1 (Epstein-Barr virus (strain B95-8) (HHV-4) (Human herpesvirus 4), UniProt P03211); experiment: inhibition of EBV nuclear antigen 1 DNA binding – biochemical, fluorescence polarization, 1536-well, dose response (AID 2381); set-up: species or system human gammaherpesvirus 4;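 also: fluorescence polarization of a Cy5 DNA probe bound by EBNA-1 protein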
Sequence of Epstein-Barr nuclear antigen 1 (P03211 whole entry): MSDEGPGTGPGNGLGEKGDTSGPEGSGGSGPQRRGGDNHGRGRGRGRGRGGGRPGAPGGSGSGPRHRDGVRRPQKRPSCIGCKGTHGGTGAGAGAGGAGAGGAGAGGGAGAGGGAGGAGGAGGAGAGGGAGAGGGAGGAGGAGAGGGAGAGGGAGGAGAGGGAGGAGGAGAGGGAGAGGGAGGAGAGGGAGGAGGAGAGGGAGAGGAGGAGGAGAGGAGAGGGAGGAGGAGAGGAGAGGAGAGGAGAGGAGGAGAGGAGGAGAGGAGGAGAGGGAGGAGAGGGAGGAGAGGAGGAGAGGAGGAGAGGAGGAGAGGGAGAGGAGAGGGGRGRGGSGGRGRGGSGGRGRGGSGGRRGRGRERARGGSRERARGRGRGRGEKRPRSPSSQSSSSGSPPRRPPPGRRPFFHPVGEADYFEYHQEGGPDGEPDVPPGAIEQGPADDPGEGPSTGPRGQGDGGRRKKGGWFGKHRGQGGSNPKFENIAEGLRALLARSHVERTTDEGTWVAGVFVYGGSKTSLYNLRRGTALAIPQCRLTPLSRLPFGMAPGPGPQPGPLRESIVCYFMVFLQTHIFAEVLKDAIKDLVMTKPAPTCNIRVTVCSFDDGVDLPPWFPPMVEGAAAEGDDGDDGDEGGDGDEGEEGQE

[20] = molecular target: Lytic switch protein BZLF1 (Epstein-Barr virus (strain B95-8) (HHV-4) (Human herpesvirus 4), UniProt P03206); experiment: inhibition of BZLF1 ZTA DNA binding – biochemical, fluorescence polarization, Epstein-Barr virus, 1536-well, counter-screen for EBNA-1 inhibitor project, dose response (AID 2377); set-up: species or system human gammaherpesvirus 4;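 also: fluorescence polarization of Cy5-labelled ZRE DNA probe bound by purified Zta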
[21] = Luminescence Cell-Based Dose Confirmation HTS to Identify Inhibitors of Polyadenylation.; type: functional
[22] = molecular target: Sphingosine 1-phosphate receptor 2 (Homo sapiens, UniProt O95136); experiment: Dose Response Cell Based Assay for Agonists of the S1P2 Receptor of Purchased Analogues. [Related pubchem assays: 729, 843, 854, 736 ]; type: functional
Sequence of Sphingosine 1-phosphate receptor 2 (O95136 whole entry): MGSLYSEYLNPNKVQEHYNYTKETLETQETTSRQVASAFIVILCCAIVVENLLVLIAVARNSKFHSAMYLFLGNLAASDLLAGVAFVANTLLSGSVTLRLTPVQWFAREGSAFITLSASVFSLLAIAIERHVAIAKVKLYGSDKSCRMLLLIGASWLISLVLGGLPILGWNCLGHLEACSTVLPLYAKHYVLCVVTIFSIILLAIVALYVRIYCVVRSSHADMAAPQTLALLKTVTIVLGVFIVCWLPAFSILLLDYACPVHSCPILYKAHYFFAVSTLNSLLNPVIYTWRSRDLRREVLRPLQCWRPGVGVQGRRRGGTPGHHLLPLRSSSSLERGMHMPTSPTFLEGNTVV

[23] = molecular target: Protein-tyrosine kinase 2-beta (Homo sapiens, UniProt Q14289);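 also: potency of inhibitors of PYK2 kinase phosphorylation of poly-GT substrate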
Sequence of Protein-tyrosine kinase 2-beta (Q14289 whole entry): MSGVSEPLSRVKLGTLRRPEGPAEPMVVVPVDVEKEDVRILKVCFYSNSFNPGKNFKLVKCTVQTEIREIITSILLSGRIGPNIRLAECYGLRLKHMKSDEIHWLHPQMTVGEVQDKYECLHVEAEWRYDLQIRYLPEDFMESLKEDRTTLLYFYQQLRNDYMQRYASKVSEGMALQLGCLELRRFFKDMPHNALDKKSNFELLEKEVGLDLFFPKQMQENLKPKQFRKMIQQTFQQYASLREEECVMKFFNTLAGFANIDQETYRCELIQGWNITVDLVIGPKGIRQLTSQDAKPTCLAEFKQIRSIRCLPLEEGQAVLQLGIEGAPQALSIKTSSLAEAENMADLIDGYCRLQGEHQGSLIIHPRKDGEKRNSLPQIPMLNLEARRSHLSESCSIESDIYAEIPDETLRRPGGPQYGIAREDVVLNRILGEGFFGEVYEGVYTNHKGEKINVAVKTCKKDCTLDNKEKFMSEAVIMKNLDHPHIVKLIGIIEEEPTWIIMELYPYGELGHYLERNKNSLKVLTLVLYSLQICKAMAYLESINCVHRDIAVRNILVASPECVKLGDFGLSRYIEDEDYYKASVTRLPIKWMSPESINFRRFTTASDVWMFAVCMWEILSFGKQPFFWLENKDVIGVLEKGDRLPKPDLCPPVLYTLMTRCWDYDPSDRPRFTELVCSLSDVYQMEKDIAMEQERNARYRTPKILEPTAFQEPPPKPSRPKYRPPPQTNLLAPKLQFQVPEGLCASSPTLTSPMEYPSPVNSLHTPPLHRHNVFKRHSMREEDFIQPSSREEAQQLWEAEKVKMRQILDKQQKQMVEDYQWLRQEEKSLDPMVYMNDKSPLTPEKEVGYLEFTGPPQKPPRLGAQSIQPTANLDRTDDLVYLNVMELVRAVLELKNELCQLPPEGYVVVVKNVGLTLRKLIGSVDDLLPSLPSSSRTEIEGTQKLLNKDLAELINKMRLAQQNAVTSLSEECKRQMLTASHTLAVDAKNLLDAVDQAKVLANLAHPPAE

SMILES: COc1ccc(-c2cc(N)n(S(=O)(=O)c3c(F)c(F)c(F)c(F)c3F)n2)cc1OC
EC50 [1]: 5.96 µM (inconclusive)
IC50 (Bcl-2-related protein A1 [2]): 5.82 µM (active)
IC50 [3]: > 100 µM (not active)
EC50 [4]: 3.9 µM (active)
IC50 [5]: 1.18 µM (active)
EC50 [6]: 2.82 µM (active)
IC50 (Bcl-2-related protein A1 [7]): 4.33 µM (active) and 4.96 µM (active)
EC50 [8]: 2.15 µM (active)
IC50 (Bcl-2-related protein A1 [9]): 5.39 µM (active)
IC50 [10]: 16.2 µM (active)
IC50 (Beta-galactosidase): > 66.6 µM (inactive)
IC50 (Tumor necrosis factor): 10.3 µM (active)
IC50 (HEK293): > 20 µM (inactive)
IC50 [11]: 16.4 µM (active)
AC50 [12]: 0.896 µM (active)
AC50 [13]: 20.2 µM (active)
AC50 [14]: 4.25 µM (active)
IC50 [15]: 0.951 µM (active)
IC50 [16]: 6.26 µM (active)
IC50 (Beta Lactamase): 34.3 µM (inactive)
AC50 [17]: 3.69 µM (active)
AC50 [18]: 8.51 µM (active)

EC50 (Estrogen receptor): 12.8 µM (not active)
SMILES: O=C(NCCCCCCNC(=O)c1ccc(Br)s1)c1ccc(Br)s1

IC50 (Leucine aminopeptidase): < 1 µM (active)
IC50 (Aspartyl aminopeptidase): > 73.5 µM (not active)
IC50 (Procathepsin L): > 59.6 µM (not active)
SMILES: O=C(O)Cc1ccc(NC(=O)Nc2ccc(Br)cc2)cc1

IC50 [19]: 37.8 µM (not active)
IC50 [20]: > 111 µM (not active)
SMILES: COc1ccc(CNc2nc(NCc3ccc(OC)cc3)n(C(C)=O)n2)cc1

SMILES: CS(=O)(=O)N1CCN(CC2CC3C=CC2C3)CC1 (stereo unspecified)
EC50 [21]: > 120 µM (not active)

EC50 [22]: > 30 µM (not active)
SMILES: Cc1cc(C(=O)CN2C(=O)CCC2=O)c(C)n1Cc1ccc2c(c1)OCO2

IC50 [23]: > 69.5 µM (not active)
SMILES: COC(=O)Cc1ccc2c3ccccc3n(C)c2c1
